26 compounds from US10975056B2 (GlaxoSmithKline Intellectual Property Development Limited, priority 2016, dated 2021) can be followed below.

The target of one test is DNMT1 (Homo sapiens, UniProt P26358). As to the kind of experiment: DNMT1 biochemical activity, breaklight assay and/or SPA assay.
Test [1] concerns erythroid progenitor cells (EPCs). As to the kind of experiment: Fetal hemoglobin (HbF) ELISA in day 7 erythroid progenitor cells.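 Further: for fetal hemoglobin induction normalized to vehicle-treated cells.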 In kind it is cell-based, human. As to conditions: Homo sapiens, Erythroid progenitor cell, HbF ELISA, day 7 EPCs, 5 days; read-out: EPC ELISA (pEC50 category) (converted). In a few lines:
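HbF induction was read by anti-HbF sandwich ELISA (HRP/TMB, OD450) on lysates and normalized to vehicle-treated cells. Cells were day 7 erythroid progenitors derived from human bone marrow CD34+ cells, seeded at 1,000/well with 3 U/mL rhEPO. Compound was given for 5 days at 37 °C at final concentrations […].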

[2] abbreviates: binned activity in either the breaklight or the SPA assay.
Setting [3] is: binned activity in either the breaklight or the SPA assay, read-out: DNMT1 BioChemical (pIC50 category) (converted).
Where [4] appears, read: breaklight assay and/or SPA assay, repeated experimental runs, read-out: average pIC50 against DNMT1 (converted).

Values joined by “and” are separate entries in the source; they are usually repeats but may differ in a detail not shown here. Identical values can stand only once. Counter-ions that a name gives are not always drawn. Like-named read-outs stand apart in the source and are kept apart here.

Chain of DNMT1 (P26358 whole entry, looked up): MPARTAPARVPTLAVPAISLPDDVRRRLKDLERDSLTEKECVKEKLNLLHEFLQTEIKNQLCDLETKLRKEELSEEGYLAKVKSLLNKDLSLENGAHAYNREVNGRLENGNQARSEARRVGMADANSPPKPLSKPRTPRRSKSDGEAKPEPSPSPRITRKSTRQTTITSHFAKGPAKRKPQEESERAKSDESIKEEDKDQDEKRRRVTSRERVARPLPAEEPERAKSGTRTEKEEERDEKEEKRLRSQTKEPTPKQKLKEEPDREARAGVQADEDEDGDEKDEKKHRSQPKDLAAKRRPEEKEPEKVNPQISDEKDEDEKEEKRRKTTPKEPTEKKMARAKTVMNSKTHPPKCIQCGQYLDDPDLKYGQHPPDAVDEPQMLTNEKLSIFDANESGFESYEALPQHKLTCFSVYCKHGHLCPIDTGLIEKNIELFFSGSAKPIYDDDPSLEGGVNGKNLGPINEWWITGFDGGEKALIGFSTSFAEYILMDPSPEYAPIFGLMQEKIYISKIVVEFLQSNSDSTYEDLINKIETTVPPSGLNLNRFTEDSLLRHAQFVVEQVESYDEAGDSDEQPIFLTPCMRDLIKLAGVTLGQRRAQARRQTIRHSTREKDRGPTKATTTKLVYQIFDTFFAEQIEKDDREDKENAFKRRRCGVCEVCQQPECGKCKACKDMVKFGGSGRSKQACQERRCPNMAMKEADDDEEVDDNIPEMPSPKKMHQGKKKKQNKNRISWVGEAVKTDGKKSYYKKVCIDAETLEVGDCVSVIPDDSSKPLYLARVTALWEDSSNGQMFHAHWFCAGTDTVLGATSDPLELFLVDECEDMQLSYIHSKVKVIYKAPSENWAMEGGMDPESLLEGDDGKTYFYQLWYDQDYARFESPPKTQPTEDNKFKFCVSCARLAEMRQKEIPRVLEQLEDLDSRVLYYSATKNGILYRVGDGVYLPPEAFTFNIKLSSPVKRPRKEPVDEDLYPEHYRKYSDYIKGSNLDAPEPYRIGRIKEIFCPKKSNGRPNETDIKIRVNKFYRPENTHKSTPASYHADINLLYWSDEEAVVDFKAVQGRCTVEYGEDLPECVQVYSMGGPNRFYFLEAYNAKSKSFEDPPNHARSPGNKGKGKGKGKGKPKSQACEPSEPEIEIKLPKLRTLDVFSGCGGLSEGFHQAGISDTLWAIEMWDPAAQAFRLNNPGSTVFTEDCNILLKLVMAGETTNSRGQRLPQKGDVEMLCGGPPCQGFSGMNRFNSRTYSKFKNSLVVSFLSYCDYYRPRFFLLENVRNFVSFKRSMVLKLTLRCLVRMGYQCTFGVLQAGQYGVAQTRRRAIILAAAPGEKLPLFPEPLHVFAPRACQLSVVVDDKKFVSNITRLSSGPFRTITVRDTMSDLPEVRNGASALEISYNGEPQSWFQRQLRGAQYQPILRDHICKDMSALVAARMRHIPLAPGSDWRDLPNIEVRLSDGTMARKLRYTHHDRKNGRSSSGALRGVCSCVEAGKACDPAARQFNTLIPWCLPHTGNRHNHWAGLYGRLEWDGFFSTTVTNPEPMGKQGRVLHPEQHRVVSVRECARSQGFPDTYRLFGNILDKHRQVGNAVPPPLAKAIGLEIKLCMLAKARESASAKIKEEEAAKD

In the case of `CCc1c(C#N)c(S[C@@H](C(N)=O)c2ccccc2)nc(N2CC[C@](O)(CO)C2)c1C#N` [Example 689, (R)-2-((3,5-dicyano-4-ethyl-6-((R)-3-hydroxy-3-(hydroxymethyl)pyrrolidin-1-yl)pyridin-2-yl)thio)-2-phenylacetamide], the “DNMT1 BioChemical (pIC50 category)” value at DNMT1 (setting [2]) was “D (Category D: ≥6.5)”. The EC50 in test [1] was 1000 to 31600 nM.

With `CCc1c(C#N)c(SC(C(N)=O)c2ccccc2)nc(N2CCNCC(F)C2)c1C#N` (stereo not shown) [Example 381, 2-((3,5-Dicyano-4-ethyl-6-(16-fluoro-1,4-diazepan-1-yl)pyridin-2-yl)thio)-2-phenylacetamide], the IC50 at DNMT1 (setting [3]) was 316 to 1000 nM. In addition, the EC50 in test [1] is 1000 to 31600 nM.

On to `CCc1c(C#N)c(SC(C(N)=O)c2ccccc2)nc(N2CCC(OP(=O)(O)O)CC2)c1C#N` (stereo not shown) [Example 155, 1-(6-((2-Amino-2-oxo-1-phenylethyl)thio)-3,5-dicyano-4-ethylpyridin-2-yl)piperidin-4-yl dihydrogen phosphate], for which the IC50 on DNMT1 (setting [3]) was 1000 to 31600 nM. In test [1], the EC50 is greater than 31600 nM.

For the compound `CCc1c(C#N)c(SC(C(N)=O)c2ccccc2)nc(N2CCC3(CC2)CNC(=O)O3)c1C#N` (stereo not shown) [Example 256, 2-((3,5-Dicyano-4-ethyl6-(2-oxo-1-oxa-3,8-diazaspiro[4.5]decan-8-yl)pyridin-2-yl)thio)-2-phenylacetamide], the IC50 at DNMT1 (setting [3]) was 316 to 1000 nM. In addition, the EC50 in test [1] is 1000 to 31600 nM.

Turning to `CCc1c(C#N)c(SCc2ccc(NS(C)(=O)=O)c(F)c2)nc(N2CCCN(C)CC2)c1C#N` [Example 361, N-(4-(((3,5-Dicyano-4-ethyl-6-(4-methyl-1,4-diazepan-1-yl)pyridin-2-yl)thio)methyl)-2-fluorophenyl)methanesulfonamide], the IC50 at DNMT1 (setting [3]) is 316 to 1000 nM. For the same compound, the EC50 in test [1] was 1000 to 31600 nM.

On to `CCc1c(C#N)c(SC(C(N)=O)c2ccccc2)nc(N2CCN(C(=O)C3(N)COC3)CC2)c1C#N` (stereo not shown) [Example 139, 2-((6-(4-(3-Aminooxetane-3-carbonyl)piperazin-1-yl)-3,5-dicyano-4-ethylpyridin-2-yl)thio)-2-phenylacetamide, Formic Acid Salt], for which the “DNMT1 BioChemical (pIC50 category)” value on DNMT1 (setting [2]) is “D (Category D: ≥6.5)”. Moreover, the EC50 in test [1] was 316 to 1000 nM.

Turning to `CCc1c(C#N)c(SC(C(N)=O)c2ccccc2)nc(N2CCC(NC3CC3)CC2)c1C#N` (stereo not shown) [Example 552, 2-((3,5-dicyano-6-(4-(cyclopropylamino)piperidin-1-yl)-4-ethylpyridin-2-yl)thio)-2-phenylacetamide], the “DNMT1 BioChemical (pIC50 category)” value on DNMT1 (setting [2]) is recorded as “D (Category D: ≥6.5)”. For the same compound, the EC50 in test [1] was less than 316 nM.

With `CCc1c(C#N)c(SC(C(N)=O)c2ccccc2)nc(N2CCC(NCc3ccc(OC)nc3)CC2)c1C#N` (stereo not shown) [Example 467, 2-((3,5-dicyano-4-ethyl-6-(4-(((6-methoxypyridin-3-yl)methyl)amino)piperidin-1-yl)pyridin-2-yl)thio)-2-phenylacetamide], the “DNMT1 BioChemical (pIC50 category)” value at DNMT1 (setting [2]) is recorded as “D (Category D: ≥6.5)”. For the same compound, in test [1], the EC50 was less than 316 nM.

On to `CCc1c(C#N)c(SC(C(N)=O)c2ccc(F)c(F)c2)nc(N2CCC(N(C)C)CC2)c1C#N` (stereo not shown) [Example 216, 2-((3,5-Dicyano-6-(4-(dimethylamino)piperidin-1-yl)-4-ethylpyridin-2-yl)thio)-2-(3,4-difluorophenyl)acetamide], for which the IC50 on DNMT1 (setting [3]) was 1000 to 31600 nM; on DNMT1 (setting [4]), ≥ 1000 nM and 1580 nM. For the same compound, in test [1], the EC50 was less than 316 nM.

For the compound `CCc1c(C#N)c(SC(C(N)=O)c2cccc(C(=O)c3ccccc3)c2)nc(N2CCCN(CCO)CC2)c1C#N` (stereo not shown) [Example 244, 2-(3-Benzoylphenyl)-2-((3,5-dicyano-4-ethyl-6-(4-(2-hydroxyethyl)-1,4-diazepan-1-yl)pyridin-2-yl)thio)acetamide], the IC50 at DNMT1 (setting [3]) is 316 to 1000 nM. Also, the EC50 in test [1] is less than 316 nM.

With `CCc1c(C#N)c(SC(C(N)=O)c2ccccc2)nc(N(C)CCOP(=O)(O)O)c1C#N` (stereo not shown) [Example 151, 2-((6-((2-Amino-2-oxo-1-phenylethyl)thio)-3,5-dicyano-4-ethylpyridin-2-yl)(methyl)amino)ethyl dihydrocien phosphate], the IC50 at DNMT1 (setting [3]) is 1000 to 31600 nM. Further, the EC50 in test [1] is greater than 31600 nM.

With `CCc1c(C#N)c(SC(C(N)=O)c2ccccc2)nc(N2CCC(N(C)CC(C)(C)O)CC2)c1C#N` (stereo not shown) [Example 444, 2-((3,5-dicyano-4-ethyl-6-(4-((2-hydroxy-2-methylpropyl)(methyl)amino)piperidin-1-yl)pyridin-2-yl)thio)-2-phenylacetamide], the “DNMT1 BioChemical (pIC50 category)” value on DNMT1 (setting [2]) is listed as “D (Category D: ≥6.5)”. In addition, the EC50 in test [1] was less than 316 nM.

Consider `CCc1c(C#N)c(SCc2ccc(NC(=O)CO)cc2)nc(N2CCCN(C)CC2)c1C#N` [Example 301, N-(4-(((3,5-Dicyano-4-ethyl-6-(4-methyl-1,4-diazepan-1-yl)pyridin-2-yl)thio)methyl)phenyl)-2-hydroxyacetamide], for which, on DNMT1 (setting [2]), the “DNMT1 BioChemical (pIC50 category)” value is “D (Category D: ≥6.5)”. In addition, the EC50 in test [1] is 316 to 1000 nM.

For the compound `CCc1c(C#N)c(SC(C(N)=O)c2ccccc2)nc(N(C)CC(=O)N2C[C@@H](O)[C@H](O)C2)c1C#N` (stereo partly drawn) [Example 653, 2-((3,5-dicyano-6-((2-((3R,4R)-3,4-dihydroxypyrrolidin-1-yl)-2-oxoethyl)(methyl)amino)-4-ethylpyridin-2-yl)thio)-2-phenylacetamide], the “DNMT1 BioChemical (pIC50 category)” value on DNMT1 (setting [2]) was “D (Category D: ≥6.5)”. In test [1], the EC50 is 1000 to 31600 nM.

As for `CCc1c(C#N)c(SC(C(N)=O)c2ccccc2)nc(N2CCC(N3CCC(F)(F)C3)CC2)c1C#N` (stereo not shown) [Example 496, 2-((3,5-dicyano-6-(4-(3,3-difluoropyrrolidin-1-yl)piperidin-1-yl)-4-ethylpyridin-2-yl)thio)-2-phenylacetamide], the IC50 at DNMT1 (setting [3]) was 316 to 1000 nM; on DNMT1 (setting [4]), 316 to 1000 nM and 398 nM. The EC50 in test [1] was less than 316 nM.

As to `CCc1c(C#N)c(SCc2ccc(N(C)S(C)(=O)=O)cc2)nc(N(C)CCNCC(C)(C)C)c1C#N` [Example 458, N-(4-(((3,5-dicyano-4-ethyl-6-(methyl(2-(neopentylamino)ethyl)amino)pyridin-2-yl)thio)methyl)phenyl)-N-methylmethanesulfonamide], the “DNMT1 BioChemical (pIC50 category)” value on DNMT1 (setting [2]) is “D (Category D: ≥6.5)”. In addition, the EC50 in test [1] is less than 316 nM.

In the case of `CCc1c(C#N)c(SC(C(N)=O)c2ccc(C(F)(F)F)cc2)nc(N2CCC(N)CC2)c1C#N` (stereo not shown) [Example 410, 2-((6-(4-aminopiperidin-1-yl)-3,5-dicyano-4-ethylpyridin-2-yl)thio)-2-(4-(trifluoromethyl)phenyl)acetamide], the “DNMT1 BioChemical (pIC50 category)” value at DNMT1 (setting [2]) is listed as “D (Category D: ≥6.5)”. For the same compound, in test [1], the EC50 was 316 to 1000 nM.

With `CCc1c(C#N)c(SC(C(N)=O)c2ncccc2F)nc(N2CCCN(C)CC2)c1C#N` (stereo not shown) [Example 220, 2-((3,5-Dicyano-4-ethyl-6-(4-methyl-1,4-diazepan-1-yl)pyridin-2-yl)thio)-2-(3-fluoropyridin-2-yl) acetamide], the IC50 at DNMT1 (setting [3]) is 316 to 1000 nM. In test [1], the EC50 is less than 316 nM.

With `CCc1c(C#N)c(SC(C(N)=O)c2ccccc2)nc(N(C)CCN2CCC[C@H]2CO)c1C#N` (stereo partly drawn) [Example 475, 2-((3,5-dicyano-4-ethyl-6-((2-((S)-2-(hydroxymethyl)pyrrolidin-1-yl)ethyl)(methyl)amino)pyridin-2-yl)thio)-2-phenylacetamide], the “DNMT1 BioChemical (pIC50 category)” value on DNMT1 (setting [2]) is given as “D (Category D: ≥6.5)”. The EC50 in test [1] is less than 316 nM.

Take `CCc1c(C#N)c(SC(C(N)=O)c2ccccc2)nc(N2CCC(NC3CCC3)CC2)c1C#N` (stereo not shown) [Example 448, 2-((3,5-dicyano-6-(4-(cyclobutylamino)piperidin-1-yl)-4-ethylpyridin-2-yl)thio)-2-phenylacetamide]: the “DNMT1 BioChemical (pIC50 category)” value on DNMT1 (setting [2]) is “D (Category D: ≥6.5)”. Moreover, the EC50 in test [1] was less than 316 nM.

For the compound `CCc1c(C#N)c(SC(C(N)=O)c2ccccc2)nc(N2CCC(C(N)=O)C2)c1C#N` (stereo not shown) [Example 388, 1-(6-((2-Amino-2-oxo-1-phenylethyl)thio)-3,5-dicyano-4-ethylpyridin-2-yl)pyrrolidine-3-carboxamide], the IC50 at DNMT1 (setting [3]) was 316 to 1000 nM. In test [1], the EC50 was 1000 to 31600 nM.

With `CCc1c(C#N)c(SC(C(N)=O)c2ccncc2)nc(N2CCN(C)C(=O)C2)c1C#N` (stereo not shown) [Example 10, 2-{[3,5-dicyano-4-ethyl-6-(4-methyl-3-oxopiperazin-1-yl)pyridin-2-yl]sulfanyl}-2-(pyridin-4-yl)acetamide], on DNMT1 (setting [3]), the IC50 was 316 to 1000 nM. The EC50 in test [1] was greater than 31600 nM.

For `CCc1c(C#N)c(SC(C(N)=O)c2ccccc2)nc(N2CC(OC)C2)c1C#N` (stereo not shown) [Example 54, 2-((3,5-Dicyano-4-ethyl-6-(3-methoxyazetidin-1-yl)pyridin-2-yl)thio)-2-phenylacetamide], the IC50 at DNMT1 (setting [3]) was 316 to 1000 nM. Moreover, the EC50 in test [1] is 1000 to 31600 nM.

Take `CCOc1c(C#N)c(SC(C(N)=O)c2ccccc2)nc(N(C)C)c1C#N` (stereo not shown) [Example 192, 2-((3,5-Dicyano-6-(dimethylamino)-4-ethoxypyridin-2-yl)thio)-2-phenylacetamide]: the “DNMT1 BioChemical (pIC50 category)” value on DNMT1 (setting [2]) is on record as “D (Category D: ≥6.5)”. In test [1], the EC50 was 1000 to 31600 nM.

In the case of `CCc1c(C#N)c(SCc2ccc(C(N)=O)cc2)nc(N2CCCN(C)CC2)c1C#N` [Example 70, 4-(((3,5-Dicyano-4-ethyl-6-(4-methyl-1,4-diazepan-1-yl)pyridin-2-yl)thio)methyl)benzamide], the IC50 at DNMT1 (setting [3]) and at DNMT1 (setting [4]) was 316 to 1000 nM in each case. In addition, the EC50 in test [1] was 316 to 1000 nM.

With `CCc1c(C#N)c(SCc2ccc(CNC(=O)Nc3ccccc3)cc2)nc(N2CCCN(C)CC2)c1C#N` [Example 100, 1-(4-(((3,5-Dicyano-4-ethyl-6-(4-methyl-1,4-diazepan-1-yl)pyridin-2-yl)thio)methyl)benzyl)-3-phenylurea], the IC50 at DNMT1 (setting [3]) is 316 to 1000 nM. In test [1], the EC50 was greater than 31600 nM.
